Marks after values point to notes of the source that are not given here.
What was measured:
[1] = tested on: T cell recruitment at sites of DHR; experiment: Inhibition of T cell recruitment to rat skin inflammatory (DHR) sites; format: in vivo
Procedure: Inbred, approximately 200 g, male Lewis rats were used in all experiments. Cutaneous delayed hypersensitivity (DHR) was induced as previously described (1). Briefly, rats were sensitized to KLH (Sigma Chemical Co., St. Louis, Mo.) by administering 50 μg KLH in 0.1 mL complete Freund's adjuvant (CFA; Sigma Chemical Co.) into each of 4 subcutaneous sites. After 14 days, DHR was elicited by the challenge of 5 μg KLH in PBS into multiple intradermal sites on the back. Analysis was performed 24 hours after antigen challenge. For each experiment, there were at least three groups of animals of at least four animals in each group. […]
T cell recruitment at sites of DHR was quantified using methods previously described (1-4). […] The cells in the effluent were highly purified (>95%) rat T cells as assessed by anti-rat CD3 (monoclonal antibody KT3, Biosource International, Camarillo, Calif.) immunoreactivity by flow cytometry. […] Skin challenge sites (8 mm in diameter) were counted on a γ counter 24 hours after injection of radiolabeled T cells. Lung, liver, and spleen were also collected and counted as comparative indices for evaluation of input.
Statistical significance was determined using a paired Student's t-test. […]

[2] = tested on: T lymphocyte blast cells (CD3-Blasts); experiment: CD3-Blast Chemotaxis Assay (transendothelial migration to MCP-1); format: cell-based, human; details: 10 μM compound; MCP-1 about 10 nM; ECV304 endothelial coated Transwells
Source text: Recombinant human MCP-1 was obtained from Peprotech (Rockey Hill, N.J.). T lymphocyte blast cells (CD3-Blasts) were generated by standard protocols (Coligan, J. E., A. M. Kruisbeek, D. H. Macgulies, E. M. Shevach, and W. Strober, editors. 1992. Current Protocols in Immunology. John Wiley and Sons, New York 7.1.2, 7.10.1-7.10. 10). Briefly, human peripheral blood mononuclear cells (PBMC) were isolated from heparinized venous blood by Percoll density gradient centrifugation (d=1.088) at room temperature. RBCs were removed by hypotonic lysis or dextran sedimentation. Blast cells were generated by incubating 2×10^6 PBMC in 24-well tissue culture plates that were coated with 2.5 μg of an anti-CD3 monoclonal antibody (identified as TR66, a gift from Dr. A. Lanzivecchia; similar monoclonal antibody is HIT3a, from Parmingen #30111A) at 37° C. for 48 to 72 hours, and then transferring 12 wells to T25 or T75 flasks with RPMI (Roswell Park Memorial Institute 1640, a growth cell medium available from Gibco/RBL, Inc., New York)+10% FCS (fetal calf serum)+50 units/ml IL-2. The cells are expanded and cultured for up to 3 weeks. CD3-Blast chemotaxis was assessed no sooner than 3 to 4 days after transfer to the IL-2 containing medium using a modification of a transendothelial migration assay (Carr. M. W., S. J. Roth, B. Luther, S. S. Rose, and T. A. Springer. 1994. Monocyte chemoattractant protein 1 acts as a T-lymphocyte chemoattractant. Proc. Natl. Acad. Sci. USA 91:3652-6). The endothelial cells used for this assay were the endothelial cell line ECV304. (ECV304 was from the European Collection of Animal Cell Cultures, Porton Downs, UK, assession #92091712). Endothelial cells were cultured on 6.5 mm diameter Transwell culture inserts (Costar) with a […] pore size. […] Background migration was determined by counting cells that migrated in the absence of MCP-1 in the lower chamber. […] The percent inhibition by compounds of directed migration was determined by the following formula: [drawing 32] […]

Structure (SMILES): CCN(CC)CCN(CCN(CC)CC)c1ccc(-c2nc3cc(Cl)c(Cl)cc3[nH]2)cc1 [Example 1, N-[4-(5,6-dichloro-1H-benzimidazol-2-yl)-phenyl]-N-(2-diethylamino-ethyl)-N, N-diethyl-ethane-1,2-diamine]
- inhibition of T cell recruitment in rat DHR ([1]; 30 and 23 mg/kg per os at the time of antigen challenge, 24 hour period (FIG. 2)): statistically significant inhibitory effect
- recruitment of 111In-labeled rat T cells to skin DHR sites ([1]; administered once per os at the time of antigen challenge (FIG. 2)): inhibited the recruitment of ^111In-labeled rat T cells to skin DHR sites in a dose-dependent fashion
- % Inhibition of Chemotaxis at 10 μM [2]: 62-142* %
